In US9920057B2, “Substituted pyrazino[1′,2′:1 ,6]pyrido[3,4-b]indoles as phosphodiesterase type 5 inhibitors” (Chongqing University of Arts and Sciences, priority 2015, dated 2018):
“And” between values parts separate entries of the source, which are not always exact repeats. Equal entries are not always repeated. Where two headings read alike, the source gives them in different places.

How the values were obtained:
PDE5A = biological target: T1, PDE5A (Homo sapiens, UniProt O76074); assay: Inhibition against PDE5 (Homogenous Time Resolve Fluoresce); format: biochemical; conditions: HTF
T1 construct: purchased SIGMA-ALDRICH E904
Description: Method: IC50 of an inhibition effect on PDE5A (E904, SIGMA-ALDRICH) of test compounds was tested by using Sildenafil (S1431, selleck) as a positive control sample and the method of Homogenous Time Resolve Fluoresce, HTF (Cat. No. 62GM2PEB, Cisbio.)

[1] = Study on pharmacokinetics in rats, oral administration; format: in vivo, SD rat
Description: Sample Preparation Method: One step protein precipitation
Precipitant: ACN, with concentration of Verapamil (5.00 ng·mL-1)
Calibration Curve and QC samples Preparation: 5.00 μL each of the calibration or QC working solution and 45.0 μL of blank plasma were transferred into a 1.5-mL microcentrifuge tube. Final standard curve concentration levels were 1.00, 2.50, 5.00, 10.0, 50.0, 100, 500 and 1000 ng·mL-1. The QC concentration levels were 2.50 or 5.00, 50.0 and 800 ng·mL-1. Dilution QC was 5000 ng·mL-1.
Plasma Samples Preparation: Aliquots of 10.0 μL of real samples, calibration curve samples and QC samples were supplemented with 100 μL of precipitant. After vortexed for 3.00 min and centrifuged at 12000 rpm for 5.00 min, the supernatant 10 μL was injected for LC-MS/MS analysis.
Number of Rats/Group: 3/group
Administration Route: oral administration
Blood Collection Time: 0 min, 15 min, 30 min, 1 h, 2 h, 4 h, 6 h, 8 h, 24 h

normal rat = assay: Erectile function of normal rat: blood pressure, intracavernous pressure and detumescence time on cavernous nerve stimulation; format: in vivo
Description: Rats were anesthetized with 2% pentobarbital […], then incision was made in the right side of neck, a PE-50 silicon tube connected with a pressure transducer was inserted into the carotid artery, to record the change of the blood pressure.
The erectile activity was induced by a bipolar stainless-steel, stimulus parameters at a pulse width of […], stimulation frequency of 7.98 Hz, current of 3 mA, stimulation duration of 40 s, and then record the intracavernous pressure (ICP).
Assessment of erectile function: ICP, BP, change of ICP and detumescence time were monitored though electric cavernous nerve stimulation at 2, 6 and 24 hours post dosing. Erectile function was evaluated by change of ICP and detumescence time.

PDE11A = biological target: T2, PDE11A (Homo sapiens, UniProt Q9HCR9); assay: Inhibition of PDE activity (assay kit); format: biochemical
T2 construct: purchased
Description: (§1) i. Supplement 99 μl assay buffer per well, then add 1 μl compound in DMSO dilution to wells of V96 MicroWell Plates and uniformly mix;
(§2) ii. Add 5 μl compound in assay buffer dilution to each well of 96-well microplate;
(§3) the final concentration of compound as below:
(§4) The inhibitory potential of test compounds on several types of phosphodiesterase (PDE) activity is determined according to the protocol of assay kit.

PDE1A = biological target: T3, PDE1A (Homo sapiens, UniProt P54750); assay: Inhibition of PDE activity (assay kit); format: biochemical
T3 construct: purchased
Description: as §1, §2, §3, §4

PDE2A = biological target: T4, PDE2A (Homo sapiens, UniProt O00408); assay: Inhibition of PDE activity (assay kit); format: biochemical
T4 construct: purchased
Description: as §1, §2, §3, §4

PDE3A = biological target: T5, PDE3A (Homo sapiens, UniProt Q14432); assay: Inhibition of PDE activity (assay kit); format: biochemical
T5 construct: purchased
Description: as §1, §2, §3, §4

PDE4A = biological target: T6, PDE4A (Homo sapiens, UniProt P27815); assay: Inhibition of PDE activity (assay kit); format: biochemical
T6 construct: purchased
Description: as §1, §2, §3, §4

PDE6C = biological target: T7, PDE6C (Homo sapiens, UniProt P51160); assay: Inhibition of PDE activity (assay kit); format: biochemical
T7 construct: purchased
Description: as §1, §2, §3, §4

PDE7A = biological target: T8, PDE7A (Homo sapiens, UniProt Q13946); assay: Inhibition of PDE activity (assay kit); format: biochemical
T8 construct: purchased
Description: as §1, §2, §3, §4

[2] = Mean of 3 rats, oral 10.0 mg · kg^−1
[3] = individual rats, oral 10.0 mg · kg^−1
[4] = 2 hours after dosing, High dose
[5] = 2 hours after dosing, Middle dose
[6] = 6 hours after dosing, High dose
[7] = 6 hours after dosing, Middle dose
[8] = 24 hours after dosing, High dose
[9] = 24 hours after dosing, Low dose
[10] = 24 hours after dosing, Middle dose

T6 sequence (P27815 1-647 isoform P27815-4): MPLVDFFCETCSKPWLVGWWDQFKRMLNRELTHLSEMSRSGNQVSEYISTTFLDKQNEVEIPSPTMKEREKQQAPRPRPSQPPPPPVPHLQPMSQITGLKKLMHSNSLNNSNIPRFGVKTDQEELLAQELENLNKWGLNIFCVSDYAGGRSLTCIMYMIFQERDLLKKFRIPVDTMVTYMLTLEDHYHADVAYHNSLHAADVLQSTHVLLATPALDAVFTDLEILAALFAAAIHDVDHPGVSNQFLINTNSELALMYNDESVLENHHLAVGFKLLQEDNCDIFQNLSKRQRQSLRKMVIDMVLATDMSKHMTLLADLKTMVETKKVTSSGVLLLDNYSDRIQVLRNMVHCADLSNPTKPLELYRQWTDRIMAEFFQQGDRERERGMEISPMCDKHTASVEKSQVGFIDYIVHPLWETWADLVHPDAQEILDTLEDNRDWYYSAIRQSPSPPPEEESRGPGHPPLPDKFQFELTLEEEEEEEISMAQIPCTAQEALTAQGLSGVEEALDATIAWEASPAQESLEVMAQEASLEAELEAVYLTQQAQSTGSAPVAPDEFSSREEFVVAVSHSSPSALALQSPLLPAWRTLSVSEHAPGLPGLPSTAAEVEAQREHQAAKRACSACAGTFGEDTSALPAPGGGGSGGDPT
T8 sequence (Q13946 whole entry): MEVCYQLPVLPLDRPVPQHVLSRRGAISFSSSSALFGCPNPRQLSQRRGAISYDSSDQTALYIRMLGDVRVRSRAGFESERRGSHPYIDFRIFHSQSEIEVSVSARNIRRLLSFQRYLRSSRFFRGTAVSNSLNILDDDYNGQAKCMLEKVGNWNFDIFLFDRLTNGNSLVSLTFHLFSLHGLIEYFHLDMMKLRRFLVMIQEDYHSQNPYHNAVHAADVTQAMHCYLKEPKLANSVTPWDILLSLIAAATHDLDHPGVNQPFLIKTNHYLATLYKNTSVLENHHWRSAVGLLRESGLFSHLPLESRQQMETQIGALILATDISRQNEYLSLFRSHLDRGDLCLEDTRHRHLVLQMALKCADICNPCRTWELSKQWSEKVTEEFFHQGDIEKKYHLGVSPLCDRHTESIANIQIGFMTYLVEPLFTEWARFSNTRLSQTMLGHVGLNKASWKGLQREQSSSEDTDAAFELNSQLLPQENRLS
T3 sequence (P54750 whole entry): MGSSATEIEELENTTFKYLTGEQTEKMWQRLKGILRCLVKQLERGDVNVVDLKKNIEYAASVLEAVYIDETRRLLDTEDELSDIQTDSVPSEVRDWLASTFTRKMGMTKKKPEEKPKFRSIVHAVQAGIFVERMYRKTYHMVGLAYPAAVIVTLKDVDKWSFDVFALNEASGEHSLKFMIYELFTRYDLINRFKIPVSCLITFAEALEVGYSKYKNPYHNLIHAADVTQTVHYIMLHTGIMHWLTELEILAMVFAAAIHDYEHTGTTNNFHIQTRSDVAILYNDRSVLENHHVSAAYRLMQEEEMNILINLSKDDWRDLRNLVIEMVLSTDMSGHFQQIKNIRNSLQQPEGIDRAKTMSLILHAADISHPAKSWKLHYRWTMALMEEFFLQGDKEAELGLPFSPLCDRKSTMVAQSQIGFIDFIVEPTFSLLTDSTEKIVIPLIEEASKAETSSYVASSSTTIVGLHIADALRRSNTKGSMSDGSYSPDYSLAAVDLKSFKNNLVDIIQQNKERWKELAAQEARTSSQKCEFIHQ
T2 sequence (Q9HCR9 whole entry): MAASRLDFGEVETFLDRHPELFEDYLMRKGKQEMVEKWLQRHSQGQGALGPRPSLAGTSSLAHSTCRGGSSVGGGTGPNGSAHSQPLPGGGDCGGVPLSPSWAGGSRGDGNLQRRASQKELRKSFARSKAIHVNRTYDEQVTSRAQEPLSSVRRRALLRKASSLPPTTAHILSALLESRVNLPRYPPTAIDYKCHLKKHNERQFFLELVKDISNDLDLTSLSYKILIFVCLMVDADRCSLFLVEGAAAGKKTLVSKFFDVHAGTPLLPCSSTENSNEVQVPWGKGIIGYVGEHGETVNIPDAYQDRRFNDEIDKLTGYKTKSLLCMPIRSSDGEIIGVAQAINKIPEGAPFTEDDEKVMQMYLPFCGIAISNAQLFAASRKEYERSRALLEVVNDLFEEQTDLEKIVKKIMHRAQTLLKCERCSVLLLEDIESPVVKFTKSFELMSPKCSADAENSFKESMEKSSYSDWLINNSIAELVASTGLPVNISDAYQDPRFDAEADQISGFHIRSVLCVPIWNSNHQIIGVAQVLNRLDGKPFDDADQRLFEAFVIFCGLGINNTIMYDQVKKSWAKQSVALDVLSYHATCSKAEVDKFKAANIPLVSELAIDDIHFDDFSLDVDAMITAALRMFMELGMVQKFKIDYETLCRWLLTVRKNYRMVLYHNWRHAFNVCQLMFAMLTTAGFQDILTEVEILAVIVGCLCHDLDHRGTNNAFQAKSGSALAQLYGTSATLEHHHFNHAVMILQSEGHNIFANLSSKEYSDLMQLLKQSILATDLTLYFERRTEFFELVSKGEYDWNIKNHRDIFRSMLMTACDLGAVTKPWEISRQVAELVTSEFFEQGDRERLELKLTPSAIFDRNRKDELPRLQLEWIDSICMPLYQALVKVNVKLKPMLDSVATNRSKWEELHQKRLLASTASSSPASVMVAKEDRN
T4 sequence (O00408 whole entry): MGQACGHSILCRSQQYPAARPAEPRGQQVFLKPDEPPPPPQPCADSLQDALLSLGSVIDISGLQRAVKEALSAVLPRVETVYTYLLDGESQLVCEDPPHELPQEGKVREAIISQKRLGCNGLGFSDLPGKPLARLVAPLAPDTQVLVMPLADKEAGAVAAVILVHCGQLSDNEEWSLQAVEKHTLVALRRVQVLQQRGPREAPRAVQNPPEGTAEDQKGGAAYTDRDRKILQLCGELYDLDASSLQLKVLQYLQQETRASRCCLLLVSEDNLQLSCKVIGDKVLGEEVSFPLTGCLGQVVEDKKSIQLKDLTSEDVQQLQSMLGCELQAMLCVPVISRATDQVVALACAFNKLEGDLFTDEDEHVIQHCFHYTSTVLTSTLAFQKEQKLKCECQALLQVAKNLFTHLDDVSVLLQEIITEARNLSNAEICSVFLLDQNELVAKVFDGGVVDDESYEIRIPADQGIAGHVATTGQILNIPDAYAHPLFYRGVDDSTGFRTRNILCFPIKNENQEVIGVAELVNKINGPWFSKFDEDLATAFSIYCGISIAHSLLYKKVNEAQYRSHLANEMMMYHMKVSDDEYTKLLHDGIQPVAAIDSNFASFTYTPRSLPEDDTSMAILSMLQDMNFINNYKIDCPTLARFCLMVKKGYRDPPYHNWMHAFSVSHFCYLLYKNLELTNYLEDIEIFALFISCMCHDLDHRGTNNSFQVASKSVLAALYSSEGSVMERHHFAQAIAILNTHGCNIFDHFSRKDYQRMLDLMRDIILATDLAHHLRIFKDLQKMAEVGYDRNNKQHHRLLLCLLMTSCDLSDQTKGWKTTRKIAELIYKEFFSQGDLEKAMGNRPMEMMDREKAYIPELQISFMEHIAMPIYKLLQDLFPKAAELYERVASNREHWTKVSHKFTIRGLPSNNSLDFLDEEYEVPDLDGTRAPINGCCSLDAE
T5 sequence (Q14432 whole entry): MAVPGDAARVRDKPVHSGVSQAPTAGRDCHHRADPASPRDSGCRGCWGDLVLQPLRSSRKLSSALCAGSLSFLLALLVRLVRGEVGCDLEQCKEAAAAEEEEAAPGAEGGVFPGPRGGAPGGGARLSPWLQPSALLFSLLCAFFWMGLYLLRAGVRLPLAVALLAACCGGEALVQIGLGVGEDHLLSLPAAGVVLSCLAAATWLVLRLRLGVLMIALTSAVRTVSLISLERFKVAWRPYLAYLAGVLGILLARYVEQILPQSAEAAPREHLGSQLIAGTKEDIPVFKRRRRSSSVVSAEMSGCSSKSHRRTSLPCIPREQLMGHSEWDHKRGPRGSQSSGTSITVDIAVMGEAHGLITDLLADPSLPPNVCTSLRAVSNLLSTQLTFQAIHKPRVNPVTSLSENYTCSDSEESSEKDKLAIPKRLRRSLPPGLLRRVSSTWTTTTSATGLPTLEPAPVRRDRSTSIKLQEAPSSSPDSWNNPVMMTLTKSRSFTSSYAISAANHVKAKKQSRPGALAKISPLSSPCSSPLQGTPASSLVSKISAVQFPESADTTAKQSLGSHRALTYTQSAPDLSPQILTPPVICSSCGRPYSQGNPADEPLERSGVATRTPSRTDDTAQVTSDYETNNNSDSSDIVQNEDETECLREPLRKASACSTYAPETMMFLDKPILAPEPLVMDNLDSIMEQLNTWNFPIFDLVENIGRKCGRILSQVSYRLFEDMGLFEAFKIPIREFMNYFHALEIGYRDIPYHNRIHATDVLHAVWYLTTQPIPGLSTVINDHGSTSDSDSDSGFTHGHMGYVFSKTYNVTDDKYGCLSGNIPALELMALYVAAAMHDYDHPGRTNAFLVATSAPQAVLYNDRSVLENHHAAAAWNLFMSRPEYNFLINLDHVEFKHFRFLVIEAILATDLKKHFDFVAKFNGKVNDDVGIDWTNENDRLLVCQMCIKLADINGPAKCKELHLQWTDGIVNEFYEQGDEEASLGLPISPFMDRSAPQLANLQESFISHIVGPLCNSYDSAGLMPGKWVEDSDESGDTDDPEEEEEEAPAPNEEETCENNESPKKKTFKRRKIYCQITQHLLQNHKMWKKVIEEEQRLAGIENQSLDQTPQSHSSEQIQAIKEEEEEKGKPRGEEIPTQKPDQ

IC50 (PDE5A): 0.0336 µM
AUMC0-inf [1, 2]: 50280 h · h · ng · mL^−1
AUMC0-t [1, 2]: 49982 h · h · ng · mL^−1
Kel [1, 2]: 0.305 h⁻¹
MRTPO [1, 2]: 4.68 h
half-life ([1]; SD, rat, plasma, po, 10 mg/kg, Mean of 3 rats, oral 10.0 mg · kg^−1): 2.29 h
AUC0-inf ([1]; SD, rat, plasma, po, 10 mg/kg, Mean of 3 rats, oral 10.0 mg · kg^−1, read-out: AUC0-inf): 10800 ng·h/mL
AUC0-t ([1]; SD, rat, plasma, po, 10 mg/kg, Mean of 3 rats, oral 10.0 mg · kg^−1, read-out: AUC0-t): 10800 ng·h/mL
Cmax ([1]; SD, rat, plasma, po, 10 mg/kg, Mean of 3 rats, oral 10.0 mg · kg^−1, read-out: Cmax): 1470 ng/mL
half-life ([1]; SD, rat, plasma, po, 10 mg/kg, individual rats, oral 10.0 mg · kg^−1): 2.12 h
AUC0-inf ([1]; SD, rat, plasma, po, 10 mg/kg, individual rats, oral 10.0 mg · kg^−1, read-out: AUC0-inf): 9980 ng·h/mL
AUC0-t ([1]; SD, rat, plasma, po, 10 mg/kg, individual rats, oral 10.0 mg · kg^−1, read-out: AUC0-t): 9970 ng·h/mL
Cmax ([1]; SD, rat, plasma, po, 10 mg/kg, individual rats, oral 10.0 mg · kg^−1, read-out: Cmax): 1300 ng/mL
Tmax ([1]; SD, rat, plasma, individual rats, oral 10.0 mg · kg^−1): 2 h
Cmax [1, 3]: 1574 ng/mL and 1528 ng/mL
Kel [1, 3]: 0.327 h⁻¹ and 0.269 h⁻¹ and 0.319 h⁻¹
MRTPO [1, 3]: 4.88 h and 4.55 h and 4.61 h
t1/2 [1, 3]: 2.58 h and 2.17 h
Cmax and Auc, comparison in words ([1]; rat, oral, compared with Cialis): more excellent than those of Cialis
IC50 (PDE11A): 2.6 µM and 2.64 µM
IC50 (PDE1A): > 10 µM
inhibition at 10 µM (PDE1A; at 10 μM): 0%
IC50 (PDE2A): > 10 µM
inhibition at 10 µM (PDE2A; at 10 μM): 0%
IC50 (PDE3A): > 10 µM
inhibition at 10 µM (PDE3A; at 10 μM): 0%
IC50 (PDE4A; PDE4A): > 10 µM
inhibition at 10 µM (PDE4A; PDE4A1A, at 10 μM): 0%
IC50 (PDE6C): 14.7 µM
IC50 (PDE7A): > 10 µM
inhibition at 10 µM (PDE7A; at 10 μM): 0%
SMILES: [2H]C1([2H])Oc2ccc([C@@H]3c4[nH]c5ccccc5c4C[C@@H]4C(=O)N(N)CC(=O)N34)cc2O1 [DDCI-01, (6R,12aR)-2-amino-6-(benzo[d][1,3]dioxol-5-yl-2,2-d2)-2,3,6,7,12,12a-hexahydropyrazino[1′,2′:1,6]pyrido[3,4-b]indole-1,4-dione]
half-life (T1/2), comparison in words ([1]; SD rat, oral, compared with Cialis and DDCI02): slightly shorter than that of Cialis and significantly shorter than that of DDCI02
AUC0-inf [1, 3]: 11221 ng·h/mL and 11087 ng·h/mL
AUC0-t [1, 3]: 11202 ng·h/mL and 11080 ng·h/mL
AUMC0-inf [1, 3]: 48665 h · h · ng · mL^−1 and 51065 h · h · ng · mL^−1 and 51110 h · h · ng · mL^−1
AUMC0-t [1, 3]: 48497 h · h · ng · mL^−1 and 50539 h · h · ng · mL^−1 and 50911 h · h · ng · mL^−1
BP after stimulation (normal rat; [4]): 60.97 ± 19.95 mmHg
BP before stimulation (normal rat; [4]): 91.86 ± 21.57 mmHg
Change of BP (normal rat; [4]): 30.89 ± 4.09 mmHg
Change of ICP (normal rat; [4]): 41.20 ± 9.83 mmHg
Detumescence Time (normal rat; [4]): 101.00 ± 21.56 s
ICP after stimulation (normal rat; [4]): 52.25 ± 9.49 mmHg
ICP before stimulation (normal rat; [4]): 11.05 ± 3.25 mmHg
BP after stimulation (normal rat; 2 hours after dosing, Low dose): 63.89 ± 2.93 mmHg
BP before stimulation (normal rat; 2 hours after dosing, Low dose): 97.43 ± 11.45 mmHg
Change of BP (normal rat; 2 hours after dosing, Low dose): 33.54 ± 13.57 mmHg
Change of ICP (normal rat; 2 hours after dosing, Low dose): 31.38 ± 3.09 mmHg
Detumescence Time (normal rat; 2 hours after dosing, Low dose): 38.00 ± 10.42 s
ICP after stimulation (normal rat; 2 hours after dosing, Low dose): 42.86 ± 5.14 mmHg
ICP before stimulation (normal rat; 2 hours after dosing, Low dose): 11.48 ± 4.57 mmHg
BP after stimulation (normal rat; [5]): 70.38 ± 7.82 mmHg
BP before stimulation (normal rat; [5]): 96.49 ± 7.55 mmHg
Change of BP (normal rat; [5]): 26.12 ± 3.04 mmHg
Change of ICP (normal rat; [5]): 33.09 ± 7.46 mmHg
Detumescence Time (normal rat; [5]): 40.75 ± 4.79 s
ICP after stimulation (normal rat; [5]): 41.58 ± 7.94 mmHg
ICP before stimulation (normal rat; [5]): 8.49 ± 2.06 mmHg
BP after stimulation (normal rat; [6]): 50.09 ± 22.36 mmHg
BP before stimulation (normal rat; [6]): 76.38 ± 21.11 mmHg
Change of BP (normal rat; [6]): 26.29 ± 1.54 mmHg
Change of ICP (normal rat; [6]): 41.74 ± 7.92 mmHg
Detumescence Time (normal rat; [6]): 64.00 ± 19.37 s
ICP after stimulation (normal rat; [6]): 50.94 ± 11.12 mmHg
ICP before stimulation (normal rat; [6]): 9.20 ± 8.79 mmHg
BP after stimulation (normal rat; 6 hours after dosing, Low dose): 61.78 ± 17.93 mmHg
BP before stimulation (normal rat; 6 hours after dosing, Low dose): 95.73 ± 18.25 mmHg
Change of BP (normal rat; 6 hours after dosing, Low dose): 33.95 ± 3.20 mmHg
Change of ICP (normal rat; 6 hours after dosing, Low dose): 31.38 ± 7.73 mmHg
Detumescence Time (normal rat; 6 hours after dosing, Low dose): 47.75 ± 11.79 s
ICP after stimulation (normal rat; 6 hours after dosing, Low dose): 40.36 ± 5.92 mmHg
ICP before stimulation (normal rat; 6 hours after dosing, Low dose): 8.98 ± 3.06 mmHg
BP after stimulation (normal rat; [7]): 61.03 ± 12.64 mmHg
BP before stimulation (normal rat; [7]): 92.91 ± 19.51 mmHg
Change of BP (normal rat; [7]): 31.88 ± 7.39 mmHg
Change of ICP (normal rat; [7]): 33.49 ± 8.09 mmHg
Detumescence Time (normal rat; [7]): 48.00 ± 23.85 s
ICP after stimulation (normal rat; [7]): 40.21 ± 8.37 mmHg
ICP before stimulation (normal rat; [7]): 6.72 ± 3.14 mmHg
BP after stimulation (normal rat; [8]): 52.95 ± 14.12 mmHg
BP before stimulation (normal rat; [8]): 94.16 ± 9.79 mmHg
Change of BP (normal rat; [8]): 41.21 ± 11.98 mmHg
Change of ICP (normal rat; [8]): 43.36 ± 4.90 mmHg
Detumescence Time (normal rat; [8]): 60.75 ± 24.14 s
ICP after stimulation (normal rat; [8]): 52.77 ± 2.07 mmHg
ICP before stimulation (normal rat; [8]): 9.41 ± 3.81 mmHg
BP after stimulation (normal rat; [9]): 72.34 ± 12.33 mmHg
BP before stimulation (normal rat; [9]): 108.36 ± 8.89 mmHg
Change of BP (normal rat; [9]): 36.03 ± 10.90 mmHg
Change of ICP (normal rat; [9]): 30.65 ± 0.98 mmHg
Detumescence Time (normal rat; [9]): 23.75 ± 12.84 s
ICP after stimulation (normal rat; [9]): 43.55 ± 5.05 mmHg
ICP before stimulation (normal rat; [9]): 12.91 ± 5.02 mmHg
BP after stimulation (normal rat; [10]): 69.85 ± 12.70 mmHg
BP before stimulation (normal rat; [10]): 102.18 ± 15.12 mmHg
Change of BP (normal rat; [10]): 32.33 ± 8.76 mmHg
Change of ICP (normal rat; [10]): 31.58 ± 5.75 mmHg
Detumescence Time (normal rat; [10]): 41.25 ± 14.50 s
ICP after stimulation (normal rat; [10]): 40.00 ± 5.56 mmHg
ICP before stimulation (normal rat; [10]): 8.41 ± 1.86 mmHg
erectile function of the normal rat model, result in words (normal rat; high, middle, and low doses, Tables 1-9): significantly improved the erectile function
